The structures appear in SMILES notation. Calls of active or inactive are those of the source.

Assay [1] has as its target Heat shock protein HSP 90-alpha (Homo sapiens, UniProt P07900). In words: Luminescence-based dose response biochemical high throughput screening assay for inhibitors of the Heat Shock Protein 90 (HSP90). [Related pubchem assays: 1831 (Summary AID.), 1846 (Confirmation screen.), 1789 (Primary screen.)].
Assay [2] concerns the target T1, Corticotropin-releasing factor receptor 2/Corticotropin-releasing factor-binding protein (Homo sapiens, UniProt P24387+Q13324).
T1 sequence (Q13324 whole entry): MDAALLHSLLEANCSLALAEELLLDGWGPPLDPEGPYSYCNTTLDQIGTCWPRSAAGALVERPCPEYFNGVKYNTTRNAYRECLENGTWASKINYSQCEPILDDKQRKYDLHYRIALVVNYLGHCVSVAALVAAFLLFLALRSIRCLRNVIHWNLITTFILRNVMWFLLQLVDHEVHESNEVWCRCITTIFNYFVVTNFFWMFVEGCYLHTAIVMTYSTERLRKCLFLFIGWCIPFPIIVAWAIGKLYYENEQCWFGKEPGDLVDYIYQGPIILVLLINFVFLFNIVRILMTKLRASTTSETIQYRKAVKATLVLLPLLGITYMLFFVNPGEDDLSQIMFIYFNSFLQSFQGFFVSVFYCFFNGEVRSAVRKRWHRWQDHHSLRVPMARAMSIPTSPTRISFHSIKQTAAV
T1 sequence (P24387 whole entry): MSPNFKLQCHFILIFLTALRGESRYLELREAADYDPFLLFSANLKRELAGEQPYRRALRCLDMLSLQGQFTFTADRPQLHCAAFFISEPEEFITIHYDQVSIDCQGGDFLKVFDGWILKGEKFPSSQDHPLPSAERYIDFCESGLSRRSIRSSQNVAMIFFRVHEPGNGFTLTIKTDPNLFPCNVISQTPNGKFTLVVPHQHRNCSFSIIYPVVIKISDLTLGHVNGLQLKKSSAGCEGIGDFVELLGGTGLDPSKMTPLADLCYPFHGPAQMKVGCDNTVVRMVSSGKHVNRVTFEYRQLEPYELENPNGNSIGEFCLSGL
In words: activators of CRF receptor 2 with binding protein – uHTS hits, confirmation (AID 602473). The assay is classed as functional. As to conditions: read-out: EC50_Mean.

The target of assay [3] is T2, Mannose-6-phosphate isomerase (Homo sapiens, UniProt P34949).
T2 sequence (P34949 whole entry): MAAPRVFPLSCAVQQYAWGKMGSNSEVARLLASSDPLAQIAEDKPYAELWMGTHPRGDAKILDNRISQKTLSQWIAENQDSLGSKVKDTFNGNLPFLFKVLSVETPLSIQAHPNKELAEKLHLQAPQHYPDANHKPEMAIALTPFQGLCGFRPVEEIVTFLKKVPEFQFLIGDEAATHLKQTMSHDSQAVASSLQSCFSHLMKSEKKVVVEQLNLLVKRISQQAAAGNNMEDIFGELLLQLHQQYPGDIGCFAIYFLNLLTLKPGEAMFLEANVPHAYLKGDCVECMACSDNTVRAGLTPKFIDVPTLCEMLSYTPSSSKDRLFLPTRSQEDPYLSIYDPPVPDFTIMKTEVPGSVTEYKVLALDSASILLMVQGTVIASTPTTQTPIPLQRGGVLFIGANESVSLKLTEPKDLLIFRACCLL
In words: MPI inhibition at elevated mannose 6-phosphate – biochemical, fluorescence intensity, high mannose 6-phosphate, primary screen (AID 1220).

Assay [4] deals with DNA dC->dU-editing enzyme APOBEC-3G (Homo sapiens, UniProt Q9HC16). Put plainly: Dose Response confirmation of small molecule APOBEC3G DNA Deaminase Inhibitors via a fluorescence-based single-stranded DNA deaminase assay. [Related pubchem assays (depositor defined):AID493012, AID493028]. The assay is classed as functional.
Chain of DNA dC->dU-editing enzyme APOBEC-3G (Q9HC16 whole entry): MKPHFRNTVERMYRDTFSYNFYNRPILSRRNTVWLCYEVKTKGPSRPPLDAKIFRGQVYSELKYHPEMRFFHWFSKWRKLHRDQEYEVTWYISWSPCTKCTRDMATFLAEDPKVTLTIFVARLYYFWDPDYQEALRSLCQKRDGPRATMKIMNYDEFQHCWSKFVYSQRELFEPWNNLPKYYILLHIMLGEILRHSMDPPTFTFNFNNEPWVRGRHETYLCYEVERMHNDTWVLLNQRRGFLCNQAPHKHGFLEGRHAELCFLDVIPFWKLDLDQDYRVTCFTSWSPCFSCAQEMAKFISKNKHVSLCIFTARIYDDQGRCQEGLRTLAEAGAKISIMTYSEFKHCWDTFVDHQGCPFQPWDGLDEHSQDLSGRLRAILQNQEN
For assay [5], the target named is T3, E3 ubiquitin-protein ligase XIAP (Homo sapiens, UniProt P98170). Put plainly: Counter Screen using XIAP-Bir3 for Chemical Antagonists of Bir1/2 domains of IAP-family anti-apoptotic proteins. [Related pubchem assays (depositor defined):AID1018, AID1449, AID1514, AID1638, AID1749, AID1750, AID488957, AID488963].
T3 sequence (P98170 whole entry): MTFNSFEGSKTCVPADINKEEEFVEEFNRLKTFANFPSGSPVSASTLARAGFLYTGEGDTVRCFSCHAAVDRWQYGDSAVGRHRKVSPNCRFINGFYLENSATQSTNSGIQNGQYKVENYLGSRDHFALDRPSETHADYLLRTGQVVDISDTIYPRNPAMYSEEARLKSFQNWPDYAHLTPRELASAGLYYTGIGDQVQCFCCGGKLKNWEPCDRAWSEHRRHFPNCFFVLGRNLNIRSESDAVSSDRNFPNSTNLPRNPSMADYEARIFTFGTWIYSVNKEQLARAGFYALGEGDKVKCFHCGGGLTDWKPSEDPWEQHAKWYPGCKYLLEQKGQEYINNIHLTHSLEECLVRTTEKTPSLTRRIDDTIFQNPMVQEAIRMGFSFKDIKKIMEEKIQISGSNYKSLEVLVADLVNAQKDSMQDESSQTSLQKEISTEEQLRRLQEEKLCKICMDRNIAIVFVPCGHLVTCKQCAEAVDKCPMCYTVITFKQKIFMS
Assay [6] concerns the target T3, E3 ubiquitin-protein ligase XIAP. Put plainly: small molecules displacing peptide from XIAP – biochemical, IAP family, fluorescence polarization (AID 1018). The assay is classed as functional. Background: Polarisation of emitted light reports the rotation of a fluorescent probe.
Assay [7] deals with Glucose-6-phosphate 1-dehydrogenase (Homo sapiens, UniProt P11413). In words: inhibition of Homo sapiens G6PD, dose series – biochemical, fluorescence, selectivity assay for P. falciparum G6PD inhibitor project, dose response (AID 504792). The format is functional.
Chain of Glucose-6-phosphate 1-dehydrogenase (P11413 whole entry): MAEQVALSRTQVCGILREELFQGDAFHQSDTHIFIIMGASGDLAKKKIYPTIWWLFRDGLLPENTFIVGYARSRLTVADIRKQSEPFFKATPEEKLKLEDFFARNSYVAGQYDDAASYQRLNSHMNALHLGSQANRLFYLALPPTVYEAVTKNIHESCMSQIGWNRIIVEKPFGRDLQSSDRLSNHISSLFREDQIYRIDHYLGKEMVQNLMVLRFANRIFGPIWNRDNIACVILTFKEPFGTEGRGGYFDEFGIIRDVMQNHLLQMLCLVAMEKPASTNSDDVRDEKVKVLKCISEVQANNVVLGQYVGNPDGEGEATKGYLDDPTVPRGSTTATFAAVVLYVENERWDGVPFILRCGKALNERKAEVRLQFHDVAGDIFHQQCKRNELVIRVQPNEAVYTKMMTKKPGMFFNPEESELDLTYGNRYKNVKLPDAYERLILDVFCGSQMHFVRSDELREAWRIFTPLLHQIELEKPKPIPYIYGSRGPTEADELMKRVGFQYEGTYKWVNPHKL
Assay [8] addresses Eukaryotic translation initiation factor 4E (Mus musculus, UniProt P63073). Put plainly: blockers of eIF4G binding by eIF4E – biochemical, TR-FRET, dose response (AID 855).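 Further: potency for disrupting eIF4E binding to eIF4GI seen as loss of FRET.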 The format is functional.
A further assay deals with T4, Hexokinase HKDC1 (Homo sapiens, UniProt Q2TB90).
T4 sequence (Q2TB90 whole entry): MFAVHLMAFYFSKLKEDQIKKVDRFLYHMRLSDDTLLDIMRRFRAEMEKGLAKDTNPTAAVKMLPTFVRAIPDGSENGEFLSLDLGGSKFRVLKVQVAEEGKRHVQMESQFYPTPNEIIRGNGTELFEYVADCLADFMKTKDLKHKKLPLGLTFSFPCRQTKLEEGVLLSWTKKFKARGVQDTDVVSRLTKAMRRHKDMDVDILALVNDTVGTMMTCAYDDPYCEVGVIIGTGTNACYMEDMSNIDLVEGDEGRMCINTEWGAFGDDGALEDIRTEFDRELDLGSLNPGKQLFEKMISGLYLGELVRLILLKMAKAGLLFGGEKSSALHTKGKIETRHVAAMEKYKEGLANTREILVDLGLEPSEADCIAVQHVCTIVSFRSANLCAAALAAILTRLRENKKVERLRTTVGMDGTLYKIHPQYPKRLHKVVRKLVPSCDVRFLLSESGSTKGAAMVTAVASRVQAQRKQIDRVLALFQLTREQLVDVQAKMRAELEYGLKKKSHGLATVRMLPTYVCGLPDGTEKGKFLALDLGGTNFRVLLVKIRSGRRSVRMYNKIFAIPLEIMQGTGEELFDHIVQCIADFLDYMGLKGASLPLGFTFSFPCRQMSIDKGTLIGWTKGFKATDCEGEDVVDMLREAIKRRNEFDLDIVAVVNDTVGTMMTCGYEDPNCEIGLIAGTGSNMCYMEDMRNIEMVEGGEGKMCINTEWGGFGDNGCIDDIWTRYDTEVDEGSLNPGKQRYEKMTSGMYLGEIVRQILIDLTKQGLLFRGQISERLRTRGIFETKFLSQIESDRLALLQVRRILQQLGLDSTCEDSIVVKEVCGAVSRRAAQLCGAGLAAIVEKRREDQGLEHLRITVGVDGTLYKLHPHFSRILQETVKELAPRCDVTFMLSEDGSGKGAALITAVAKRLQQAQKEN
Put plainly: inhibition of HKDC1 glucose phosphorylation – biochemical, W721R variant, dose response (AID 504729). The format is functional.

The target in assay [9] is T5, Replicative DNA helicase DnaB (Mycobacterium tuberculosis, UniProt P9WMR3).
T5 sequence (P9WMR3 whole entry): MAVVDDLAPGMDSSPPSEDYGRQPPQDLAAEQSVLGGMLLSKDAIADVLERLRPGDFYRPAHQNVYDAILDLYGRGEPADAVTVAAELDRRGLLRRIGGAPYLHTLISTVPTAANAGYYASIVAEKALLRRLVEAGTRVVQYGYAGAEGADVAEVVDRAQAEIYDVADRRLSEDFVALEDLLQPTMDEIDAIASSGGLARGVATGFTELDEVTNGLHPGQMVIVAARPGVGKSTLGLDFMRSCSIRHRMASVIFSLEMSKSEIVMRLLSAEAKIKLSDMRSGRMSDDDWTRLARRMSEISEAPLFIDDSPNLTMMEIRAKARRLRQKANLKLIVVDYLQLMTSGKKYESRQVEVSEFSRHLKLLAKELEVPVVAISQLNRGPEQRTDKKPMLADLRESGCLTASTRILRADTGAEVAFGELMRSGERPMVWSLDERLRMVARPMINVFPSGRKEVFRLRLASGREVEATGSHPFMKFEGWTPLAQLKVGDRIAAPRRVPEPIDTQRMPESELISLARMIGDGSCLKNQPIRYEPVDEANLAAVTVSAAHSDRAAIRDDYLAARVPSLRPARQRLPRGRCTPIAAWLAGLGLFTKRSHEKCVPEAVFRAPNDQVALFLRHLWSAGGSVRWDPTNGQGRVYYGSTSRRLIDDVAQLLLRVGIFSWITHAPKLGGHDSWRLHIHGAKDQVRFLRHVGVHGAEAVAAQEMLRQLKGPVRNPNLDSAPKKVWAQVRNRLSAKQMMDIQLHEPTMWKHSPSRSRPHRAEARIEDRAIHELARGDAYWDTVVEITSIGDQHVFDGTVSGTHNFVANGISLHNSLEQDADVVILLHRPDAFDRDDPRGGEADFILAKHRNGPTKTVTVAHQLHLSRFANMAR
In words: DnaB intein splicing inhibitors, dose response, biochemical, cell-free fluorescence (AID 449749). The format is functional.

A further assay deals with T6, Protein RecA (Mycobacterium tuberculosis, UniProt P9WHJ3).
T6 sequence (P9WHJ3 whole entry): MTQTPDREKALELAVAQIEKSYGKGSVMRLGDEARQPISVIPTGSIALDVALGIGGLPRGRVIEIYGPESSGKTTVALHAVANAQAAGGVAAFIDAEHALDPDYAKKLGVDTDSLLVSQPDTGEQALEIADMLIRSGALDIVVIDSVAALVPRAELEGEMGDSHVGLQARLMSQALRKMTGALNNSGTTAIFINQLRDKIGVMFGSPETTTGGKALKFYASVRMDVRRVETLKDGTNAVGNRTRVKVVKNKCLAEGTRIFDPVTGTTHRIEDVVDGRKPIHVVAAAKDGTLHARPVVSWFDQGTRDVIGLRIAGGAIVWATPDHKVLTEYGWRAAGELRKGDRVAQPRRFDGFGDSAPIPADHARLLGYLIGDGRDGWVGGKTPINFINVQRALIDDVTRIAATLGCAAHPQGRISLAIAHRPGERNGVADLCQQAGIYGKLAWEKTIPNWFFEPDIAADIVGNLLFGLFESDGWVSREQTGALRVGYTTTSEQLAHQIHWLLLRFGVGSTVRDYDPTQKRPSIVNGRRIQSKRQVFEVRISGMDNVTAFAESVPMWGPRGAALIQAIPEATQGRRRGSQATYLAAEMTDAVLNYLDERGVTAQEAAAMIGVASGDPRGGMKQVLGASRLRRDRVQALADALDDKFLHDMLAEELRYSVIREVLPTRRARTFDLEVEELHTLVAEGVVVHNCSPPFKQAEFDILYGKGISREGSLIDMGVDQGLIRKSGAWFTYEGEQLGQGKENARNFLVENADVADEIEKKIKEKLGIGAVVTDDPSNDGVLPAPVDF
In words: Fluorescence Cell-Free Homogeneous Dose Retest to Identify Inhibitors of RecA-Intein Splicing Activity. [Related pubchem assays (depositor defined):AID2097, AID2223, AID489010, AID492950]. The assay is classed as functional.

A further assay addresses Genome polyprotein (dengue virus type 2, UniProt P29990). Put plainly: flavivirus cap methylation enzyme inhibition – biochemical, confirmation dose response, primary screen (AID 588689). The assay is classed as functional.
In the next assay the target is Protein Tat (Human immunodeficiency virus type 1 group M subtype B (isolate HXB2)(HIV-1), UniProt P04608). The assay is classed as functional.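 Further: tat binding to TAR RNA read out by fluorescence polarization.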
Chain of Protein Tat (P04608 whole entry): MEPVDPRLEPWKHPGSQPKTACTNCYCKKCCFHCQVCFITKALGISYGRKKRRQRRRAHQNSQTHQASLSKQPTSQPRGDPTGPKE

Chain of Eukaryotic translation initiation factor 4E (P63073 whole entry): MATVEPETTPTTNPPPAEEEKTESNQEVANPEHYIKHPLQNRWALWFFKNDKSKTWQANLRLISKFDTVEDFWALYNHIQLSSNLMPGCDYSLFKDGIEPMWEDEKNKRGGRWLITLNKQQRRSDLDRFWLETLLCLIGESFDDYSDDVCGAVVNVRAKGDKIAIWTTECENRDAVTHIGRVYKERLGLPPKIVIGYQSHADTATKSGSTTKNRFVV
Chain of Genome polyprotein (P29990 2492-3391 limits assumed): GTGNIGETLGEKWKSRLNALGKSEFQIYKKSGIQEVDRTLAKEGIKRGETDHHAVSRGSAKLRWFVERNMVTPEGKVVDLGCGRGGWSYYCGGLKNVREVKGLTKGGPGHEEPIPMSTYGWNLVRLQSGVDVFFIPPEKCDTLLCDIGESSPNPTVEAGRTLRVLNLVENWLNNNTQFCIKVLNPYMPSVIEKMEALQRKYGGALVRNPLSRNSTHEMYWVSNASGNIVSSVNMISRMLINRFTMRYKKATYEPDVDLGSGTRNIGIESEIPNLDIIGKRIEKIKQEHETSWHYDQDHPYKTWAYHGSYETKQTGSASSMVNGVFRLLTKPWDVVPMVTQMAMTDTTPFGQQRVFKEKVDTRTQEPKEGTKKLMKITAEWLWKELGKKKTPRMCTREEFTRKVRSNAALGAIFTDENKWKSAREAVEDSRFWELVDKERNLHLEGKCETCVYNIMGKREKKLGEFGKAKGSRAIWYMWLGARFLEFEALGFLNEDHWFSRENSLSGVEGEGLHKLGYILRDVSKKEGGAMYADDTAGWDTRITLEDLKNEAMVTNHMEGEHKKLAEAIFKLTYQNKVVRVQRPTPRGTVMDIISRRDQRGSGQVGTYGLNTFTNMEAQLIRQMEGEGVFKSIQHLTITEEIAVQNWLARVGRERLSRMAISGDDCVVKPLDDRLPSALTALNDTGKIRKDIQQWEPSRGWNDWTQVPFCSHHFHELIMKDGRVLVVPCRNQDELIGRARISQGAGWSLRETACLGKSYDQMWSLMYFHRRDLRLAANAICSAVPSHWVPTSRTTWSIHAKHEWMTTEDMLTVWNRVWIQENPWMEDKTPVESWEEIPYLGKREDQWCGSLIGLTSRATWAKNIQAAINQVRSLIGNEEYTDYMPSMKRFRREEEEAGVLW

Broadly, the IC50 is the concentration that gives 50% inhibition. Turning to `Cc1ccc2oc(=O)c(/C=C(\O)c3ccco3)nc2c1`, the IC50 in assay [1] is 5.13 µM (active). Also, the EC50 in [2] is 4.74 µM (active).
Consider `Cc1cccc(N(O)C(=O)Nc2cccc(Cl)c2)c1`, for which, in [1], the IC50 is 5.44 µM (active).
Turning to `O=C(/C=C/c1ccccc1)Nc1cccc(S(=O)(=O)Nc2ccccc2F)c1`, the values for the IC50 in assay [3] and in assay [4] were 20 µM (active) and 31.9 µM (active), respectively.
One may read the AC50 as the midpoint of the concentration-response curve, whichever way the signal moves. Regarding `Oc1nc2ccccc2n2c(-c3ccccc3)nnc12`, the IC50 in assay [5] was > 100 µM (inactive); in assay [6], > 100 µM (not active); in [7], 41.6 µM (inactive); in assay [8], 34.4 µM (inactive); at Hexokinase HKDC1, 7.52 µM (active); on Genome polyprotein, 8.26 µM (active). Further, the concentration for half-maximal inhibition (IC50) on Protein Tat was > 100 µM (active). Besides, the AC50 in [9] is > 380 µM (inactive). For the same molecule, the EC50 on Protein RecA was 12.8 µM (active).

(Values after ChEMBL document CHEMBL1201862, “PubChem BioAssay data set” (2004).)
